The structures appear in SMILES notation. pIC50: −log10 of the molar value.

Sequence of Recombinant human PDK1 enzyme (aa 52-556) (O15530 52-556): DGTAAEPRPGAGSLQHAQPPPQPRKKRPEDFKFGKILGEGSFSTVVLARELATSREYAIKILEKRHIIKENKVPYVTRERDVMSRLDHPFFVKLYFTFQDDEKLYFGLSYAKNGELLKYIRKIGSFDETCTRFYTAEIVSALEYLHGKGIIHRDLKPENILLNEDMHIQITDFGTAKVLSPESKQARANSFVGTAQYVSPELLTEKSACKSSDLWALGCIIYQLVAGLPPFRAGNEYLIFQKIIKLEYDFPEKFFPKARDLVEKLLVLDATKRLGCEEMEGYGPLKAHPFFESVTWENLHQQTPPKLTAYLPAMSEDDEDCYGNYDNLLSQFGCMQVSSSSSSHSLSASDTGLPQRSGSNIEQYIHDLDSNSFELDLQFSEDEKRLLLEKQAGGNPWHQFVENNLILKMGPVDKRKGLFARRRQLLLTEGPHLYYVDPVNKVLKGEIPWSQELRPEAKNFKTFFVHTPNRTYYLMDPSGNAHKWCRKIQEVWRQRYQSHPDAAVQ

For the test, the target named is Recombinant human PDK1 enzyme (aa 52-556) (Homo sapiens (Human), UniProt O15530). In words: PDK1 kinase assay. The format is biochemical. To be noted: in vitro kinase assay, His6-PDK1 (aa 52-556), PDKtide, P33-ATP. In outline:
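His6-tagged human PDK1 (aa 52-556) from baculovirus-infected insect cells, 3.33 ng/well, with 25 μM PDKtide in Tris pH 7.5/10 mM Mg-acetate. Compound (from 10 μM, 1:5 steps) was preincubated 30 min at RT, then 25 μM ATP solution with γ-33P-ATP was added for 90 min at RT. Phosphoric-acid-precipitated 33P was counted on filters.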
One may read the pIC50 as the negative decadic logarithm of the IC50, by convention in mol/L. `CCOc1ccnc2ccc(C#CCNC(=O)c3cncn(Cc4ccc(F)c(F)c4)c3=O)cc12` [I-95]: the negative-log IC50 (pIC50) was 7.48. Under `CN1CCC[C@@H](COc2ccnc3ccc(C#CCNC(=O)c4cccn(C(CO)c5cc(F)c(F)c(F)c5)c4=O)cc23)C1` (stereo partly shown) [I-125.21] stands 8.70; under `CN1CCC(Oc2ccnc3ccc(C#CCNC(=O)c4cccn(Cc5ccc(F)c(F)c5)c4=O)cc23)CC1` [I-112], 7.15. `CCN1CCC(Nc2cnc3ccc(C#CCNC(=O)c4cccn([C@H](CO)c5cccc(F)c5)c4=O)cc3c2)CC1` [I-76]: the pIC50 is 8.70. Under `CN(C)CCSc1cnc2ccc(C#CCNC(=O)c3cncn(Cc4ccc(F)c(F)c4)c3=O)cc2n1` [I-18] stands 7.77; under `Cc1n[nH]cc1-c1ccnc2ccc(C#CCNC(=O)c3cncn(Cc4ccc(F)c(F)c4)c3=O)cc12` [II-93], 7.62.

On to `CN(C)c1c(C#N)cnc2ccc(C#CCNC(=O)c3cccn(Cc4ccc(F)c(F)c4)c3=O)cc12` [II-94], for which the negative logarithm of the IC50 (pIC50) was 7.57. With `CC1(CNc2ncnc3ccc(C#CCNC(=O)c4cccn(Cc5ccc(F)c(F)c5)c4=O)cc23)COC1` [II-36] the figure was 6.33. On to `O=C(NCC#Cc1ccc2ncc(NC3CCN(C4COC4)CC3)nc2c1)c1cccn([C@H](CO)c2cccc(F)c2)c1=O` [I-63], for which the pIC50 is 8.40. With `COCCN1CCC(Nc2cnc3ccc(C#CCNC(=O)c4ccnn(Cc5ccc(F)c(F)c5)c4=O)cc3n2)CC1` [I-53], the pIC50 was 8.10.

For `CC(C)N1CCC[C@@H](COc2ccnc3ccc(C#CCNC(=O)c4cccn(Cc5ccc(F)c(F)c5)c4=O)cc23)C1` [I-125.22], the pIC50 is 8.52.

For `NC1CCC(Nc2cnc3ccc(C#CCNC(=O)c4cncn(Cc5ccc(F)c(F)c5)c4=O)cc3n2)C1` (stereo not shown) [I-44], the negative-log IC50 (pIC50) is 7.96. With `CN1CC[C@H](COc2ccnc3ccc(C#CCNC(=O)c4cccn(Cc5cc(F)c(F)c(F)c5)c4=O)cc23)C1` [I-125.9] the figure was 8.70; with `O=C(CNc1ncnc2ccc(C#CCNC(=O)c3cncn(Cc4ccc(F)c(F)c4)c3=O)cc12)c1ccccc1` [II-16], 6.66. Consider `CNc1ncnc2ccc(C#CCNC(=O)c3cccn(Cc4ccoc4)c3=O)cc12` [II-51], for which the negative logarithm of the IC50 (pIC50) was 6.11. With `CN(C)C1CCN(c2ncnc3ccc(C#CCNC(=O)c4cccn(Cc5ccc(F)c(F)c5)c4=O)cc23)CC1` [II-40] the figure was 7.13; with `CN(C)CCCNC(=O)c1cnc2ccc(C#CCNC(=O)c3cncn(Cc4ccc(F)c(F)c4)c3=O)cc2c1` [II-68], 7.70.

For the compound `COc1ccc(CCNc2ncnc3ccc(C#CCNC(=O)c4cncn(Cc5ccc(F)c(F)c5)c4=O)cc23)cc1OC` [II-8], the pIC50 was 7.04. As to `COCCN1CCC(Nc2cnc3ccc(C#CCNC(=O)c4cccn([C@@H](C)c5ccc(F)c(F)c5)c4=O)cc3c2)CC1` [I-78], the pIC50 was 8.05. Under `CN(C)[C@H]1CC[C@H](Nc2cnc3ccc(C#CCNC(=O)c4cncn(Cc5ccc(F)c(F)c5)c4=O)cc3n2)CC1` [I-43] stands 8.30; under `CN(C)CCCOc1ncnc2ccc(C#CCNC(=O)c3cncn(Cc4ccc(F)c(F)c4)c3=O)cc12` [I-8], 6.99. With `Cc1c(C#CCNC(=O)c2cncn(Cc3ccc(F)c(F)c3)c2=O)ccc2ncc(C(=O)N(C)C)cc12` [II-70] the figure was 6.73. With `CC1CN(C)CCC1Nc1ncnc2ccc(C#CCNC(=O)c3cncn(Cc4ccc(F)c(F)c4)c3=O)cc12` (stereo not shown) [II-25] the figure was 6.90. In the case of `CN1CCC(CNc2ncnc3ccc(C#CCNC(=O)c4cccn(Cc5ccc(F)c(F)c5)c4=O)cc23)C1` (stereo not shown) [II-38], the negative logarithm of the IC50 (pIC50) is 7.01. On to `COc1ccc(CCNc2ncnc3ccc(C#CCNC(=O)c4cncn(Cc5ccc(F)c(F)c5)c4=O)cc23)cc1` [II-18], for which the negative logarithm of the IC50 (pIC50) was 7.39. Under `CN(C)CC(O)COc1ccnc2ccc(C#CCNC(=O)c3cccn(Cc4ccc(F)c(F)c4)c3=O)cc12` (stereo not shown) [I-105] stands 7.33. With `COCCCNc1ncnc2ccc(C#CCNC(=O)c3cncn(Cc4ccc(F)c(F)c4)c3=O)cc12` [II-14] the figure was 6.80; with `O=C(NCC#Cc1ccc2ncc(CC3CCNCC3)nc2c1)c1cncn(Cc2ccc(F)c(F)c2)c1=O` [I-66], 6.18; with `COCCN1CCC(Nc2cnc3ccc(C#CCNC(=O)c4cncn(Cc5ccc(F)c(F)c5)c4=O)cc3n2)CC1` [I-37], 8.30. As to `CN1CCCC(NC(=O)c2cnc3ccc(C#CCNC(=O)c4cncn(Cc5ccc(F)c(F)c5)c4=O)cc3c2)C1` (stereo not shown) [II-80], the negative-log IC50 (pIC50) is 7.19. With `CNc1cnc2ccc(C#CCNC(=O)c3cncn(Cc4ccc(F)c(F)c4)c3=O)cc2n1` [I-14] the figure was 7.57. With `Cc1c(C#CCNC(=O)c2cncn(Cc3ccc(F)c(F)c3)c2=O)ccc2ncc(-c3ccccc3)cc12` [I-79] the figure was 7.10; with `CNc1c(C#N)cnc2ccc(C#CCNC(=O)c3cccn(Cc4ccc(F)c(F)c4)c3=O)cc12` [II-105], 7.34. In the case of `O=C(NCC#Cc1ccc2ncc(NC3CCNCC3)nc2c1)c1cncn(Cc2ccc(F)c(F)c2)c1=O` [I-27], the pIC50 was 8.52.

`CN(C)CC(C)(C)COc1ccnc2ccc(C#CCNC(=O)c3cncn(Cc4ccc(F)c(F)c4)c3=O)cc12` [I-102]: the pIC50 was 7.89. With `CN1CCCC(Nc2cnc3ccc(C#CCNC(=O)c4cncn(Cc5ccc(F)c(F)c5)c4=O)cc3n2)C1` (stereo not shown) [I-21] the figure was 6.83; with `CC(C)Nc1cnc2ccc(C#CCNC(=O)c3cncn(Cc4ccc(F)c(F)c4)c3=O)cc2n1` [I-35], 7.68; with `CCN(C)c1c(C#N)cnc2ccc(C#CCNC(=O)c3cccn(Cc4ccc(F)c(F)c4)c3=O)cc12` [II-103], 7.11. In the case of `O=C(NCC#Cc1ccc2nccc(OCC3CCOCC3)c2c1)c1cccn(C(CO)c2ccc(F)c(F)c2)c1=O` (stereo not shown) [I-125.16], the pIC50 was 7.96.

For `CN(CCc1ccccc1)c1c(C#N)cnc2ccc(C#CCNC(=O)c3cccn(Cc4ccc(F)c(F)c4)c3=O)cc12` [II-106], the pIC50 is 6.38.

`C[C@H](c1ccc(F)c(F)c1)n1cccc(C(=O)NCC#Cc2ccc3ncc(NC4CCN(C)CC4)nc3c2)c1=O` [I-30]: the pIC50 is 8.70. With `CNc1ncnc2ccc(C#CCNC(=O)c3cc(NCCN(C)C)nn(Cc4ccc(F)c(F)c4)c3=O)cc12` [II-57] the figure was 6.45; with `O=C(NCC#Cc1ccc2nccc(OC[C@@H]3CCCN(CCN4CCOCC4)C3)c2c1)c1cccn(Cc2cc(F)c(F)c(F)c2)c1=O` [I-125.19], 8.52. With `CCN1CCN(C(=O)c2cnc3ccc(C#CCNC(=O)c4cncn(Cc5ccc(F)c(F)c5)c4=O)cc3c2)CC1` [II-78] the figure was 6.40. Under `CCN1CCC(Nc2cnc3ccc(C#CCNC(=O)c4cncn(Cc5ccc(F)c(F)c5)c4=O)cc3n2)CC1` [I-22] stands 8.22; under `CCOc1ccnc2ccc(C#CCNC(=O)c3cccn(C(CO)c4ccc(F)c(F)c4)c3=O)cc12` (stereo not shown) [I-125.15], 7.96. Take `COCCN1CCC(Nc2cnc3ccc(C#CCNC(=O)c4cccn([C@@H](C)c5ccc(F)c(F)c5)c4=O)cc3n2)CC1` [I-52]: the pIC50 was 8.40. For the compound `CNc1ncnc2cc(Cl)c(C#CCNC(=O)c3cncn(Cc4ccc(F)c(F)c4)c3=O)cc12` [I-5], the negative logarithm of the IC50 (pIC50) is 6.64. With `CCNC(=O)c1cnc2ccc(C#CCNC(=O)c3cncn(Cc4ccc(F)c(F)c4)c3=O)cc2c1` [II-76] the figure was 7.51.

The values above are taken from patent US8575203B2, “Chemical compounds” (Boehringer Ingelheim International GmbH, priority 2010, dated 2013).
